Reference: the NIST ThermoML archive (doi:10.1016/j.jct.2008.02.004)
± gives the expanded uncertainty stated by the source.

experiment: molar enthalpy of vaporization or sublimation; settings: 298.15 K; Liquid; calvet microcalorimetry

molar enthalpy [kcal/mol] | SMILES
13.1 ± 0.526 | O=Cc1cccs1 [2-thiophenealdehyde]
14.9 ± 0.621 | CCc1ccc(C=O)s1 [2-thiophenecarboxaldehyde, 5-ethyl-]
12.6 ± 0.574 | O=Cc1ccsc1 [3-formylthiophene]
13.8 ± 0.621 | Cc1ccsc1C=O [3-methyl-2-thiophenecarboxaldehyde]
13.4 ± 0.574 | Cc1ccc(C=O)s1 [5-methyl-2-thiophenecarbaldehyde]
